Data reported in patent US8501722B2, “Methods and compositions for treating bacterial infection” (priority 2009, dated 2013).
Values joined by “and” are separate entries in the source; they are usually repeats but may differ in a detail not shown here. Equal values may be shown once. Read-outs that look alike come from different tables or passages of the source.

What was measured:
[1] = system: SK(+)GAS; assay: GAS growth by OD600 nm of culture; assay type: cell-based, Group A Streptococcus; details: for activity at 0.1 µg/mL: read-out: GAS Growth (% control), compound conc. 0.1 μg/ml; for activity at 0.3 µg/mL: read-out: GAS Growth (% control), compound conc. 0.3 μg/ml; for activity at 2.5 µg/mL: read-out: GAS Growth (% control), compound conc. 2.5 μg/ml; for activity at 5 µg/mL: read-out: GAS Growth (% control), compound conc. 5 μg/ml; for activity at 20 µg/mL: read-out: GAS Growth (% control), compound conc. 20 μg/ml; for activity at 40 µg/mL: read-out: GAS Growth (% control), compound conc. 40 μg/ml; for activity at 70 µg/mL: read-out: GAS Growth (% control), compound conc. 70 μg/ml; for activity at 10 µg/mL: read-out: GAS Growth (% control), compound conc. 10 μg/ml; for activity at 30 µg/mL: read-out: GAS Growth (% control), compound conc. 30 μg/ml; for activity at 50 µg/mL: read-out: GAS Growth (% control), compound conc. 50 μg/ml
[2] = system: streptokinase (SK)
Protocol: SK− Ecoli and SKCtr1's dose response relationship with these compounds were then examined.
The effects of 10 hit compounds out of the 23 identified were further tested by dose response assays. […] These compounds were tested for inhibition of ska expression by measuring SK activity in supernatants of GAS exposed to the test compound or control vehicle alone (DMSO). SK(+)GAS were cultured with hit compounds at a dose range of 10 nM to 100 μM at 37° C. for 16-20 hours. Supernatants of SK(+)GAS cultures were measured for SK activity using chromogenic substrate 2403 (Diapharma group Inc., West Chester, Ohio), according to the manufacturer's instruction and simultaneously monitored for nonspecific effects on GAS growth by measuring OD600 nm.
The positive compounds identified in dose response assays are subjected to SK assay to identify compounds inhibiting SK expression in SK(+)GAS. Briefly, SK(+)GAS is grown at the presence of hit compounds at a dose range determined by dose response assays within which SK(−) GAS growth is inhibited less than 10% while SKKanGAS growth is inhibited more than 50% under 20 μg/ml kanamycin.

Row | Structure (SMILES) | activity at 0.1 µg/mL ([1]; Streptococcus) | activity at 0.3 µg/mL ([1]; Streptococcus) | activity at 2.5 µg/mL ([1]; Streptococcus) | activity at 5 µg/mL ([1]; Streptococcus) | activity at 20 µg/mL ([1]; Streptococcus) | activity at 40 µg/mL ([1]; Streptococcus) | activity at 70 µg/mL ([1]; Streptococcus) | SK Expression (% control) ([2]; compound conc. 0.1 μg/ml) | SK Expression (% control) ([2]; compound conc. 0.3 μg/ml) | SK Expression (% control) ([2]; compound conc. 1.0 μg/ml) | SK Expression (% control) ([2]; compound conc. 3 μg/ml) | SK Expression (% control) ([2]; compound conc. 10 μg/ml) | SK Expression (% control) ([2]; compound conc. 30 μg/ml) | SK Expression (% control) ([2]; compound conc. 60 μg/ml) | activity at 10 µg/mL ([1]; Streptococcus) | SK Expression (% control) ([2]; compound conc. 5 μg/ml) | SK Expression (% control) ([2]; compound conc. 20 μg/ml) | SK Expression (% control) ([2]; compound conc. 40 μg/ml) | other results
1 | C=CCn1c(SCc2ccccn2)nc2c(c1=O)C(C)(C)Cc1ccccc1-2 [CCG-203039, 3-Allyl-5,5-dimethyl-2-(pyridin-2-ylmethylthio)-5,6-dihydrobenzo[h]quinazolin-4(3H)-one] | 100% | 100% | 104% | 100% | 104% | 115% | 135% | 94 % control | 95 % control | 93 % control | 58 % control | 49 % control | 35 % control | 27 % control | – | – | – | – | –
2 | C=CCn1c(SCCO)nc2c(c1=O)C(C)(C)Cc1ccccc1-2 [CCG-203041, 3-Allyl-2-(2-hydroxyethylthio)-5,5-dimethyl-5,6-dihydrobenzo[h]quinazolin-4(3H)-one] | 100% | 102% | 104% | 106% | 107% | 60% | 50% | 93 % control | 90 % control | 90 % control | 87 % control | 57 % control | 28 % control | 12 % control | – | – | – | – | –
3 | C=CCn1c(NCC)nc2c(c1=O)C1(CCCCC1)Cc1ccccc1-2 [CCG-203043, 3-allyl-2-(ethylamino)-3H-spiro[benzo[h]quinazoline-5,1′-cyclohexan]-4(6H)-one] | 101% | 104% | 106% | 116% | 113% | 115% | 124% | 96 % control | 96 % control | 94 % control | 62 % control | 41 % control | 32 % control | 24 % control | – | – | – | – | –
4 | C=CCn1c(SCCOC)nc2c(c1=O)C(C)(C)c1ccccc1-2 [CCG-203572, 3-allyl-2-(2-methoxyethylthio)-5,5-dimethyl-3H-indeno[1,2-d]pyrimidin-4(5H)-one] | 101% | 101% | 101% | 97% | 96% | 87% | 96% | 100 % control and 128 % control | 101 % control and 129 % control | 102 % control and 134 % control | 102 % control and 75 % control | – | – | – | 97% | 21 % control | 10 % control | 9 % control | GAS Growth (% control) ([1]; compound conc. 0.3 μg/ml): 101 % control
5 | C=CCn1c(SCCOC)nc2c(c1=O)CC(C)c1ccccc1-2 (centres unmarked) [CCG-203574, 3-allyl-2-(2-methoxyethylthio)-6-methyl-5,6-dihydrobenzo[h]quinazolin-4(3H)-one] | – | – | – | 102% | 85% | 68% | – | – | – | – | – | 10 % control | – | – | 95% | 80 % control | 6 % control | 6 % control | –
6 | C=CCn1c(SCCOC)nc2c(c1=O)C(C)(C)Cc1cc(OC)ccc1-2 [CCG-203576, 3-allyl-8-methoxy-2-(2-methoxyethylthio)-5,5-dimethyl-5,6-dihydrobenzo[h]quinazolin-4(3H)-one] | 102% | 101% | 100% | 99% | 99% | 101% | 105% | 99 % control and 93 % control | 99 % control and 98 % control | 99 % control and 89 % control | 100 % control and 61 % control | – | – | – | 98% | 30 % control | 19 % control | 11 % control | GAS Growth (% control) ([1]; compound conc. 2.5 μg/ml): 100 % control
7 | C=CCn1c(SCc2ccccc2)nc2c(c1=O)C(C)(C)Cc1ccccc1-2 [compound 25203] | – | – | 89% | – | 100% | 118% | 143% | – | – | – | – | 96 % control | 70 % control | 52 % control | 92% | – | 84 % control | 63 % control | activity at 30 µg/mL ([1]; Streptococcus): 110%; activity at 50 µg/mL ([1]; Streptococcus): 125%; activity at 60 µg/mL ([1]; Streptococcus, read-out: GAS Growth (% control), compound conc. 60 μg/ml): 132%; SK Expression (% control) ([2]; compound conc. 2.5 μg/ml): 110 % control; SK Expression (% control) ([2]; compound conc. 50 μg/ml): 58 % control; SK Expression (% control) ([2]; compound conc. 70 μg/ml): 60 % control
8 | C=CCn1c(SCc2ccccc2)nc2c(c1=O)C1(CCCCC1)Cc1ccccc1-2 [compound 575097] | – | – | – | – | 88% | 86% | – | – | – | – | – | 92 % control and 88 % control | 79 % control and 77 % control | 63 % control | 89% | – | 82 % control and 79 % control | 72 % control and 74 % control | activity at 30 µg/mL ([1]; Streptococcus): 88%; activity at 50 µg/mL ([1]; Streptococcus): 86%; SK Expression (% control) ([2]; compound conc. 50 μg/ml): 70 % control and 67 % control; SK Expression (% control) ([2]; compound conc. 70 μg/ml): 65 % control
